PMC11060137, “A Phase I Study of KIN-3248, an Irreversible Small-molecule Pan-FGFR Inhibitor, in Patients with Advanced FGFR2/3-driven Solid Tumors” (Cancer Research Communications, 2024)
Where two headings read alike, the source gives them in different places.

Legend:
[1] = test system: patients with advanced solid tumors harboring FGFR2 and/or FGFR3 gene alterations
Method: The study was divided into two parts. […] The secondary objectives included antitumor activity in Part A, determination of pharmacokinetics and pharmacodynamics.
Dose level 1 was started at 5 mg oral daily, and patients were escalated on study to 50 mg daily. On the basis of ongoing efficacy, toxicity, and pharmacokinetic analysis, a planned amendment added additional cohorts up to 80 mg orally daily to define the MTD/RP2D. […] One cycle was 28 days of continuous dosing. Intrapatient dose escalation after safely tolerating two cycles was allowed if per protocol criteria were met. Patients continued therapy until evidence of disease progression, intolerance or unacceptable toxicity, withdrawal of consent, investigator decision, sponsor decision, or death.
Patients were evaluated with medical history, physical examinations, and clinical laboratory on days 1, 8, 15, and 22 of cycle 1; days 1 and 15 from cycle 2 through cycle 5; and day 1 of each subsequent cycle. […] Except for hyperphosphatemia, adverse events (AE) were graded according to the NCI-CTCAE (Common Terminology Criteria for Adverse Events) Version 5.0 at each study visit and for approximately 30 days following end of treatment.
The primary endpoints for the overall study, included: the incidence of DLTs, incidence of AEs, treatment-emergent AEs (TEAE), and treatment-related AEs (TRAE).

wild-type FGFR = test system: wild-type FGFR; parameters: method as in PMID 38267212; conditions: cited from earlier work
[2] = test system: gatekeeper (V564F) resistance mutation; parameters: method as in PMID 38267212; conditions: cited from earlier work
[3] = test system: molecular break (N549H) resistance mutation; parameters: method as in PMID 38267212; conditions: cited from earlier work
[4] = test system: FGFR2/3-driven cholangiocarcinoma, gastric, and bladder cancer xenograft models; parameters: method as in PMID 38267212; conditions: cited from earlier work

SMILES: C=CC(=O)N1C[C@@H](n2nc(C#Cc3c(F)cc4c(ncn4C4CC4)c3F)c(C(N)=O)c2NC)C[C@@H]1COC [KIN-3248]
- TEAE Anemia, n (%) ([1]; CTCAE (V5) Grade 3, N = 54): 2 (3.7%)
- TEAE Aspartate aminotransferase increased, n (%) ([1]; CTCAE (V5) Grade 3, N = 54): 2 (3.7%)
- TEAE Blood and lymphatic system disorders, n (%) ([1]; CTCAE (V5) Grade 3, N = 54): 3 (5.6%)
- TEAE Blood creatinine increased, n (%) ([1]; CTCAE (V5) Grade 3, N = 54): 0
- TEAE Constipation, n (%) ([1]; CTCAE (V5) Grade 3, N = 54): 0
- TEAE Decreased appetite, n (%) ([1]; CTCAE (V5) Grade 3, N = 54): 0
- TEAE Diarrhea, n (%) ([1]; CTCAE (V5) Grade 3, N = 54): 0
- TEAE Dry mouth, n (%) ([1]; CTCAE (V5) Grade 3, N = 54): 0
- TEAE Eye disorders, n (%) ([1]; CTCAE (V5) Grade 3, N = 54): 0
- TEAE Fatigue, n (%) ([1]; CTCAE (V5) Grade 3, N = 54): 0
- TEAE Gastrointestinal disorders, n (%) ([1]; CTCAE (V5) Grade 3, N = 54): 5 (9.3%)
- TEAE General disorders and administration site conditions, n (%) ([1]; CTCAE (V5) Grade 3, N = 54): 0
- TEAE Hypercalcemia, n (%) ([1]; CTCAE (V5) Grade 3, N = 54): 1 (1.9%)
- TEAE Hyperphosphatemia, n (%) ([1]; CTCAE (V5) Grade 3, N = 54): 8 (14.8%)
- TEAE Infections and infestations, n (%) ([1]; CTCAE (V5) Grade 3, N = 54): 4 (7.4%)
- TEAE Investigations, n (%) ([1]; CTCAE (V5) Grade 3, N = 54): 2 (3.7%)
- TEAE Metabolism and nutrition disorders, n (%) ([1]; CTCAE (V5) Grade 3, N = 54): 10 (18.5%)
- TEAE Musculoskeletal and connective tissue disorders, n (%) ([1]; CTCAE (V5) Grade 3, N = 54): 1 (1.9%)
- TEAE Nausea, n (%) ([1]; CTCAE (V5) Grade 3, N = 54): 0
- TEAE Nervous system disorders, n (%) ([1]; CTCAE (V5) Grade 3, N = 54): 2 (3.7%)
- TEAE Psychiatric disorders, n (%) ([1]; CTCAE (V5) Grade 3, N = 54): 0
- TEAE Respiratory, thoracic, and mediastinal disorders, n (%) ([1]; CTCAE (V5) Grade 3, N = 54): 1 (1.9%)
- TEAE Skin and subcutaneous tissue disorders, n (%) ([1]; CTCAE (V5) Grade 3, N = 54): 0
- TEAE Stomatitis, n (%) ([1]; CTCAE (V5) Grade 3, N = 54): 0
- TEAE Vascular disorders, n (%) ([1]; CTCAE (V5) Grade 3, N = 54): 3 (5.6%)
- Patient with any TEAE, n (%) ([1]; CTCAE (V5) Grade 4–5, N = 54): 7 (13.0%)
- TEAE Alanine aminotransferase increased, n (%) ([1]; CTCAE (V5) Grade 4–5, N = 54): 0
- TEAE Anemia, n (%) ([1]; CTCAE (V5) Grade 4–5, N = 54): 0
- TEAE Aspartate aminotransferase increased, n (%) ([1]; CTCAE (V5) Grade 4–5, N = 54): 0
- TEAE Blood and lymphatic system disorders, n (%) ([1]; CTCAE (V5) Grade 4–5, N = 54): 0
- TEAE Blood creatinine increased, n (%) ([1]; CTCAE (V5) Grade 4–5, N = 54): 0
- TEAE Constipation, n (%) ([1]; CTCAE (V5) Grade 4–5, N = 54): 0
- TEAE Decreased appetite, n (%) ([1]; CTCAE (V5) Grade 4–5, N = 54): 0
- TEAE Diarrhea, n (%) ([1]; CTCAE (V5) Grade 4–5, N = 54): 0
- TEAE Dry mouth, n (%) ([1]; CTCAE (V5) Grade 4–5, N = 54): 0
- TEAE Eye disorders, n (%) ([1]; CTCAE (V5) Grade 4–5, N = 54): 0
- TEAE Fatigue, n (%) ([1]; CTCAE (V5) Grade 4–5, N = 54): 0
- TEAE Gastrointestinal disorders, n (%) ([1]; CTCAE (V5) Grade 4–5, N = 54): 0
- TEAE General disorders and administration site conditions, n (%) ([1]; CTCAE (V5) Grade 4–5, N = 54): 1 (1.9%)
- TEAE Hypercalcemia, n (%) ([1]; CTCAE (V5) Grade 4–5, N = 54): 0
- TEAE Hyperphosphatemia, n (%) ([1]; CTCAE (V5) Grade 4–5, N = 54): 0
- TEAE Infections and infestations, n (%) ([1]; CTCAE (V5) Grade 4–5, N = 54): 2 (3.7%)
- TEAE Investigations, n (%) ([1]; CTCAE (V5) Grade 4–5, N = 54): 2 (3.7%)
- TEAE Metabolism and nutrition disorders, n (%) ([1]; CTCAE (V5) Grade 4–5, N = 54): 0
- TEAE Musculoskeletal and connective tissue disorders, n (%) ([1]; CTCAE (V5) Grade 4–5, N = 54): 0
- TEAE Nausea, n (%) ([1]; CTCAE (V5) Grade 4–5, N = 54): 0
- TEAE Nervous system disorders, n (%) ([1]; CTCAE (V5) Grade 4–5, N = 54): 1 (1.9%)
- TEAE Psychiatric disorders, n (%) ([1]; CTCAE (V5) Grade 4–5, N = 54): 0
- TEAE Respiratory, thoracic, and mediastinal disorders, n (%) ([1]; CTCAE (V5) Grade 4–5, N = 54): 1 (1.9%)
- TEAE Skin and subcutaneous tissue disorders, n (%) ([1]; CTCAE (V5) Grade 4–5, N = 54): 0
- TEAE Stomatitis, n (%) ([1]; CTCAE (V5) Grade 4–5, N = 54): 0
- TEAE Vascular disorders, n (%) ([1]; CTCAE (V5) Grade 4–5, N = 54): 0
- MTD ([1]; doses up to 50 mg orally daily): not reached
- Treatment-related deaths ([1]; in vivo): no treatment-related deaths
- Treatment-related grade 3 hyperphosphatasemia ([1]; only event reported in more than 1 patient): 14.8%
- TEAE deaths ([1]; three related to progressive disease, one to a cardiovascular accident): Four
- IC50 (wild-type FGFR): low nanomolar
- IC50 [2]: low nanomolar
- IC50 [3]: low nanomolar
- Tumor inhibition [4]: dose-dependent tumor inhibition
